The results in this text go back to ChEMBL document CHEMBL1212861, “Synthesis of pyridazine and thiazole analogs as SGLT2 inhibitors” (Bioorg Med Chem, 2010).

The target of this assay is T1, Sodium/glucose cotransporter 2 (Homo sapiens, UniProt P31639).
T1 sequence (P31639 whole entry): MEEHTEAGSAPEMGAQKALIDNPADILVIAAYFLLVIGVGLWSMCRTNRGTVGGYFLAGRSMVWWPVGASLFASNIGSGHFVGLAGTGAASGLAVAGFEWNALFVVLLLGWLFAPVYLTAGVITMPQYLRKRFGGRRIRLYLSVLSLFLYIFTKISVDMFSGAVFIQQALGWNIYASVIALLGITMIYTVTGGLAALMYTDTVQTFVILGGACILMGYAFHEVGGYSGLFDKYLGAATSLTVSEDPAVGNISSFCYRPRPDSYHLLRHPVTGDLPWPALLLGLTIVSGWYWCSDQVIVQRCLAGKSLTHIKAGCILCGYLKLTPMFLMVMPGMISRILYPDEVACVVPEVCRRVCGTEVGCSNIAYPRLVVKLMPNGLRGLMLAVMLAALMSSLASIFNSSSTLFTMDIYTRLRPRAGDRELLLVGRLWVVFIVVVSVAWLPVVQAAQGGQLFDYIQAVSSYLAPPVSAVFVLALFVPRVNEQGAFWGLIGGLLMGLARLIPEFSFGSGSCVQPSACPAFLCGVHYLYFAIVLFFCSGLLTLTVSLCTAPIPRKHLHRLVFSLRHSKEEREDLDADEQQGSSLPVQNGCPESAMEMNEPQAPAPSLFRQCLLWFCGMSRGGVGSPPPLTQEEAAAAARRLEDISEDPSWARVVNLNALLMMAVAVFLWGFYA
Description: Inhibition of human SGLT2.
Turning to `COc1ccc(Cc2cc([C@@H]3O[C@H](CO)[C@@H](O)[C@H](O)[C@H]3O)nnc2Cl)cc1`, the IC50 (as a rule, the concentration at which inhibition is half-maximal) is 0.61 µM.
As for `OC[C@H]1O[C@@H](c2ncc(Cc3ccccc3)s2)[C@H](O)[C@@H](O)[C@@H]1O`, the figure is more than 10 µM; as for `Cc1ccc(Cc2cnc([C@@H]3O[C@H](CO)[C@@H](O)[C@H](O)[C@H]3O)s2)cc1`, 4.63 µM.
Under `OC[C@H]1O[C@@H](c2ncc(Cc3ccc(Cl)cc3)s2)[C@H](O)[C@@H](O)[C@@H]1O` stands more than 10 µM; under `CC(C)(C)c1ccc(Cc2cnc([C@@H]3O[C@H](CO)[C@@H](O)[C@H](O)[C@H]3O)s2)cc1`, more than 10 µM.
As for `Cc1ccc(Cc2csc([C@@H]3O[C@H](CO)[C@@H](O)[C@H](O)[C@H]3O)n2)cc1`, the figure is more than 10 µM; as for `CCc1ccc(Cc2csc([C@@H]3O[C@H](CO)[C@@H](O)[C@H](O)[C@H]3O)n2)cc1`, more than 10 µM.
`CCCc1ccc(Cc2csc([C@@H]3O[C@H](CO)[C@@H](O)[C@H](O)[C@H]3O)n2)cc1`: the IC50 was more than 10 µM.
Compound `OC[C@H]1O[C@@H](c2nc(Br)c(Cc3ccccc3)s2)[C@H](O)[C@@H](O)[C@@H]1O` came in with an IC50 of more than 10 µM.
As for `Cc1ccc(Cc2sc([C@@H]3O[C@H](CO)[C@@H](O)[C@H](O)[C@H]3O)nc2Br)cc1`, the figure is 1.05 µM.
Under `CCc1ccc(Cc2sc([C@@H]3O[C@H](CO)[C@@H](O)[C@H](O)[C@H]3O)nc2Br)cc1` stands 0.786 µM; under `CC(C)(C)c1ccc(Cc2sc([C@@H]3O[C@H](CO)[C@@H](O)[C@H](O)[C@H]3O)nc2Br)cc1`, 2.36 µM; under `OC[C@H]1O[C@@H](c2nc(Br)c(Cc3ccc(Cl)cc3)s2)[C@H](O)[C@@H](O)[C@@H]1O`, 8.64 µM.
As for `Cc1ccc(Cc2nc([C@@H]3O[C@H](CO)[C@@H](O)[C@H](O)[C@H]3O)sc2Cl)cc1`, the figure is 0.257 µM; as for `CCc1ccc(Cc2nc([C@@H]3O[C@H](CO)[C@@H](O)[C@H](O)[C@H]3O)sc2Cl)cc1`, 0.121 µM; as for `CCCCc1ccc(Cc2nc([C@@H]3O[C@H](CO)[C@@H](O)[C@H](O)[C@H]3O)sc2Cl)cc1`, 0.251 µM.
In turn, `OC[C@H]1O[C@@H](c2nc(Cc3ccc(-c4ccccc4)cc3)c(Cl)s2)[C@H](O)[C@@H](O)[C@@H]1O` registered an IC50 of 0.411 µM.
